The results in this text go back to paper PMC10892120, “Design, Synthesis and Biological Assessment of N′-(2-Oxoindolin-3-ylidene)-6-methylimidazo[2,1-b]thiazole-5-carbohydrazides as Potential Anti-Proliferative Agents toward MCF-7 Breast Cancer” (Pharmaceuticals, 2024).

The test system of data set [1] is MCF-10A. Kind of data set: MTT assay, cytotoxicity toward MCF-10A. The class given is cell-based. The following applies: Homo sapiens. The method, then:
The developed compounds were evaluated in vitro using the MTT cell viability assay following the published techniques (Supplementary Data, page 42). […]
The 96 well tissue culture plate was seeded with 1 X 10^5 cells / ml (100 ul / well) and cultured at 37 degrees Celsius for 24 hours to form a full monolayer sheet. After forming a confluent sheet of cells, growth medium was decanted from 96 well micro titer plates, the cell monolayer was washed twice with wash media, and two-fold dilutions of the tested sample were prepared in RPMI medium with 2% serum (maintenance medium). In each well, 0.1 ml of each dilution was examined, with three wells serving as controls and receiving only maintenance media.
The plate was incubated at 37 degrees Celsius and then analyzed. Cells were examined for any physical evidence of toxicity, such as partial or total monolayer loss, rounding, shrinkage, or cell granulation. MTT solution (5mg/ml in PBS) was prepared (BIO BASIC CANADA INC), and 20ul MTT solution was added to each well. Shake the MTT into the medium for 5 minutes at 150rpm on a shaking table. Incubate for 4 hours (37°C, 5% CO2) to allow the MTT to be digested. Remove the media. (If required, dry plate on paper towels to remove residue. In 200ul DMSO, resuspend formazan (MTT metabolic product). Shake at 150rpm for 5 minutes to properly mix the formazan into the solvent. At 560nm, measure optical density and subtract background at 620nm. The optical density should be proportional to the number of cells. MCF-7 and MCF-10A cell lines were provided with 10% fetal bovine serum (FBS, Sigma-Aldrich, MO, USA). Data are presented as the mean of the IC50 values ± SD from three different experiments. […]
On the technique in general: Formazan colour is commonly taken as a measure of viable cells.

Data set [2] has as its system Cytochrome C. The data set is described as follows: RT-PCR gene expression in treated MCF-7 cells: cytochrome C. It is filed as cell-based. The following applies: treated MCF-7 cells vs untreated control MCF-7 (=1). The method, then: The gene expression levels of apoptosis genes in MCF-7 cells were measured using RT-PCR to validate the apoptosis-inducing behaviors of the potent lead compound 6i in MCF-7 cells.
The gene expression levels of apoptosis genes were evaluated in MCF-7 cells using the following approaches in the Supplementary Data, page 43.
Inhibitor solution of each well labeled as “Test Inhibitor”. For the “Positive Control" and “Blank”, add 5 μl of the same solution without inhibitor (Inhibitor buffer). Prepare 3 ml of 1x Kinase Buffer 1 by mixing 600 μl of 5x Kinase Buffer 1 with 2400 μl water. 3 ml of 1x Kinase Buffer 1 is sufficient for 100 reactions. To the wells designated as "Blank", add 20 μl of 1x Kinase Buffer 1.
Thaw VEGFR2 enzyme on ice. Upon first thaw, briefly spin tube containing enzyme to recover full content of the tube. Calculate the amount of VEGFR2 required for the assay and dilute enzyme to 1 ng/μl with 1x Kinase Buffer 1. Store remaining undiluted enzyme in aliquots at -80°C. Note:
VEGFR2 enzyme is sensitive to freeze/thaw cycles. Avoid multiple freeze/thaw cycles. […]
use thawed aliquots or diluted enzyme. […]
thoroughly, and then centrifuge at 4°C to collect contents to the bottom of the tube. […] Preparation of a reaction cocktail is crucial in quantitative PCR applications to reduce pipetting errors and maximize assay precision and accuracy. […]

Take `CCCCN1C(=O)C(=NNC(=O)c2c(C)nc3sccn23)c2ccccc21` [Compound 6i, N′-(1-Butyl-2-oxoindolin-3-ylidene)-6-methylimidazo[2,1-b]thiazole-5-carbohydrazide]: the melting point was 250 to 251 °C. In data set [1], the IC50 was 54.6 ± 1.29 µM. Besides, the “RT-PCR Fold Change Cytochrome C” value in data set [2] turned out to be 2.420 fold.

For orientation: IC50 means the midpoint of a concentration-inhibition curve. For orientation: melting point means the temperature, or range, at which the solid turns liquid.
